Where “and” joins values, the source holds several entries; their conditions need not be identical. Equal values may be shown once.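 How tested: cells in 96-well plates exposed to compound for 48 hours at five concentrations. GI50 marks 50% less growth. TGI: concentration producing complete growth inhibition.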
How the values were obtained:
Experiment in all cases: DTP human tumour cell line panel, 48 h
UACC-257 melanoma = system: UACC-257 melanoma
SK-OV-3 ovarian = system: SK-OV-3 ovarian
DU-145 prostate = system: DU-145 prostate
SW-620 colon = system: SW-620 colon
HOP-92 NSCLC = system: HOP-92 NSCLC
SNB-75 CNS = system: SNB-75 CNS
NCI-H460 lung = system: NCI-H460 lung
SN12C renal = system: SN12C renal
OVCAR-4 ovarian = system: OVCAR-4 ovarian
COLO 205 colon = system: COLO 205 colon

Compound	TGI (UACC-257 melanoma)	TGI (SK-OV-3 ovarian)	TGI (DU-145 prostate)	TGI (SW-620 colon)	TGI (HOP-92 NSCLC)	TGI (SNB-75 CNS)	TGI (NCI-H460 lung) [µM]	TGI (SN12C renal)	TGI (OVCAR-4 ovarian)	TGI (COLO 205 colon)	GI50 (UACC-257 melanoma)	GI50 (SK-OV-3 ovarian)	GI50 (SW-620 colon)	GI50 (HOP-92 NSCLC)	GI50 (NCI-H460 lung)	GI50 (SN12C renal)	GI50 (COLO 205 colon)	GI50 (SNB-75 CNS) [µM]
Clc1ccc(C(SCc2ccccc2)SCc2ccccc2)cc1	> 10 µM	> 10 µM	> 10 µM	> 10 µM	> 10 µM	> 10 µM	> 10	> 10 µM	> 10 µM	> 10 µM	–	–	–	–	–	–	–	–
O=C(N/N=C1/C(=O)c2c3ccccc3cc3cccc1c23)c1ccccc1	> 100 µM	75 µM	> 56.4 µM	> 100 µM	> 100 µM	74.9 µM	> 100	> 100 µM	44.2 µM	> 100 µM	–	–	–	–	–	–	–	–
FC(F)(F)c1cccc(-c2nc3ccccc3c3c2[C@@]2(N4CCCC4)CCCC[C@@H]32)c1	> 100 µM	> 100 µM	> 100 µM	> 100 µM	55.2 µM	> 100 µM	> 100	> 100 µM	> 100 µM	30.4 µM	–	–	–	–	–	–	–	–
O=[N+]([O-])c1cc2c(cc1/C=N/n1c(CO)nc3ccccc31)OCO2	> 100 µM	> 100 µM	> 100 µM	> 100 µM	> 100 µM	> 100 µM	> 100	> 100 µM	> 100 µM	> 100 µM	–	–	–	–	–	–	–	–
CCOP(=O)(OCC)C(C#N)Cc1ccco1 (stereo not drawn)	> 10 µM	> 10 µM	> 10 µM	> 10 µM	> 10 µM	> 10 µM	> 10	> 10 µM	> 10 µM	> 10 µM	–	–	–	–	–	–	–	–
CCOC(=O)CNc1nc(=O)c2c(=O)oc(Cl)cc2o1	38.4 µM	> 100 µM	> 100 µM	85.6 µM	19.5 µM	24.7 µM	36.2	53.1 µM	34.3 µM	> 100 µM	–	–	–	–	–	–	–	–
CCOC(=O)C(Cc1cccn1C(=O)OC(C)(C)C)[N+](=O)[O-] (stereo not drawn)	59.3 µM	> 100 µM	70.2 µM	59.2 µM	74.2 µM	54.9 µM	53.4	62.9 µM	89 µM	41.3 µM	–	–	–	–	–	–	–	–
O=S(=O)(/N=C(\NO)Nc1ccc(Cl)cc1)c1cccc2nsnc12	> 100 µM	> 100 µM	> 100 µM	> 100 µM	73.7 µM	> 100 µM	> 100	63.1 µM	> 100 µM	> 100 µM	–	–	–	–	–	–	–	–
CC1OC(OC2C(OC(=O)[C@]34CCC(C)(C)C[C@H]3C3=CC[C@@H]5[C@@]6(C)CC[C@H](OC7OC(C(=O)O)C(O)C(OC8OCC(O)C(O)C8O)C7O)C(C)(C)[C@@H]6CC[C@@]5(C)[C@]3(C)CC4)OCC(O)C2O)C(O)C(OC2OCC(O)C(O)C2O)C1OC1OCC(O)C(OC2OCC(O)C(O)C2O)C1O (stereo partly drawn)	20.2 µM and 32.5 µM	33.7 µM and > 100 µM	40.6 µM and 85.1 µM	29.5 µM and > 100 µM	17.4 µM and 26.6 µM	29.8 µM and 39.3 µM	> 100	7.2 µM and 21.6 µM	21.6 µM and 37.6 µM	3.63 µM and 20.4 µM	7.06 µM and 16.6 µM	15.4 µM and 37.2 µM	13.6 µM and 27.4 µM	6.12 µM and 13 µM	49.5 µM and > 100 µM	2.85 µM and 8.35 µM	1.8 µM and 7.67 µM	–
COc1c(O)cc2c(c1O)C(=O)/C(=C/c1ccc(O)cc1)CO2	> 100 µM	59.3 µM	78.1 µM	83.4 µM	> 100 µM	57 µM	> 100	55.5 µM	60.7 µM	32.5 µM	–	–	–	–	–	–	–	–
c1c[nH]c(C23C4C5C6C4C2C6C53)n1 (stereo not drawn)	> 100 µM	> 100 µM	> 100 µM	> 100 µM	> 100 µM	> 100 µM	> 100	> 100 µM	> 100 µM	> 100 µM	–	–	–	–	–	–	–	–
COc1ccc(N2C(=O)C3c4[nH]c5ccc(F)cc5c4C4CCC(c5ccccc5)CC4C3C2=O)cc1 (stereo not drawn)	97 µM	49.5 µM	> 100 µM	59.9 µM	36.8 µM	31.6 µM	46.8	> 100 µM	32.6 µM	> 100 µM	–	–	–	–	–	–	–	–
COC(C)(C)C1(O)CCC(C)CC1=O (stereo not drawn)	> 100 µM	> 100 µM	> 100 µM	> 100 µM	> 100 µM	> 100 µM	> 100	> 100 µM	> 100 µM	> 100 µM	–	–	–	–	–	–	–	–
CCOC(=O)CC(=O)Nc1cccc2[nH]cnc12	> 100 µM	> 100 µM	> 100 µM	> 100 µM	> 100 µM	98.1 µM	> 100	> 100 µM	> 100 µM	> 100 µM	–	–	–	–	–	–	–	–
Oc1ccc(Cl)cc1CN1CCN(Cc2cc(Cl)ccc2O)C1	5.48 µM	13.3 µM	11.6 µM	10.5 µM	5.15 µM	7.59 µM	4.96	5.19 µM	17 µM	5.15 µM	–	–	–	–	–	–	–	–
CC(C)=CCC/C(C)=C/CC/C(C)=C/CC/C(=C/CC/C(C)=C\CC/C(C)=C/CC/C(C)=C/CC/C(C)=C/Cc1cc(O)ccc1O)CO	11.8 µM	40.7 µM	> 100 µM	42.5 µM	31.4 µM	12.7 µM	33	> 100 µM	19.7 µM	7.87 µM	–	–	–	–	–	–	–	–
Cc1cn([C@@H]2O[C@H](CO[Si](C)(C)C(C)(C)C)[C@]3(O[C@H]3C(=O)NN)[C@H]2O[Si](C)(C)C(C)(C)C)c(=O)[nH]c1=O	27.6 µM	36.2 µM	21.8 µM	20 µM	19.7 µM	22.9 µM	15.6	13.9 µM	22.6 µM	6.74 µM	–	–	–	–	–	–	–	–
O=CC12C3CCC1C2C(=O)C3 (stereo not drawn)	> 100 µM	> 100 µM	> 100 µM	> 100 µM	> 100 µM	> 100 µM	> 100	> 100 µM	> 100 µM	> 100 µM	–	–	–	–	–	–	–	–

Compound	TGI (UACC-257 melanoma)	TGI (SK-OV-3 ovarian)	TGI (DU-145 prostate)	TGI (SW-620 colon)	TGI (HOP-92 NSCLC)	TGI (SNB-75 CNS)	TGI (NCI-H460 lung) [µM]	TGI (SN12C renal)	TGI (OVCAR-4 ovarian)	TGI (COLO 205 colon)	GI50 (UACC-257 melanoma)	GI50 (SK-OV-3 ovarian)	GI50 (SW-620 colon)	GI50 (HOP-92 NSCLC)	GI50 (NCI-H460 lung)	GI50 (SN12C renal)	GI50 (COLO 205 colon)	GI50 (SNB-75 CNS) [µM]
CC(C)C(/C=C/c1ccc(Cl)c(Cl)c1)=N\NC(=O)N/N=C(/C=C/c1ccc(Cl)c(Cl)c1)C(C)C	> 100 µM	> 100 µM	> 100 µM	> 100 µM	> 100 µM	> 100 µM	> 100	> 100 µM	> 100 µM	> 100 µM	–	–	–	–	–	–	–	–
Cc1cc(S(=O)(=O)Nc2nc(N)nc(N(C)C)n2)c(SCC(=O)O)cc1Cl	> 10 µM	> 10 µM	> 10 µM	> 10 µM	> 10 µM	> 10 µM	> 10	> 10 µM	> 10 µM	> 10 µM	–	–	–	–	–	–	–	–
Cc1ccc(NC(=O)CSc2nc(=O)[nH]c3nc[nH]c23)cc1	> 100 µM	> 100 µM	> 100 µM	> 100 µM	> 100 µM	> 100 µM	> 100	> 100 µM	> 100 µM	> 100 µM	–	–	–	–	–	–	–	–
COC(=O)c1cnc(Cl)cn1	> 100 µM	> 100 µM	> 100 µM	> 100 µM	> 100 µM	> 100 µM	> 100	> 100 µM	45.5 µM	> 100 µM	–	–	–	–	–	–	–	–
CCCCCCCCCCCCCCCC(=O)N(CCCCCCCCCCC(=O)O)CC(O)C(O)C(OC1OC(CO)C(O)C(O)C1O)C(O)CO (stereo not drawn)	55.7 µM	> 100 µM	> 100 µM	52.5 µM	> 100 µM	> 100 µM	> 100	40.1 µM	> 100 µM	32.6 µM	–	–	–	–	–	–	–	–
CCCCCCCCCCCCCCCCOC[C@@H](COC(c1ccccc1)(c1ccccc1)c1ccccc1)O[P+](=S)OC (stereo partly drawn)	26.5 µM	19.8 µM	30.6 µM	37 µM	26.2 µM	29.6 µM	5.8	21.8 µM	22.9 µM	38.6 µM	–	–	–	–	–	–	–	–
O=C(O)CC1NCc2cc3ccccc3nc21 (stereo not drawn)	> 100 µM	> 100 µM	> 100 µM	> 100 µM	> 100 µM	> 100 µM	> 100	> 100 µM	> 100 µM	> 100 µM	–	–	–	–	–	–	–	–
CCOC(=O)/C(C#N)=C/c1ccnc2ccccc12	> 100 µM	> 100 µM	> 100 µM	> 100 µM	> 100 µM	> 100 µM	> 100	> 100 µM	> 100 µM	> 100 µM	–	–	–	–	–	–	–	–
CN(/N=C/c1ccnc2ccccc12)c1ccc(Cl)cc1[N+](=O)[O-]	> 100 µM	> 100 µM	> 100 µM	> 100 µM	> 100 µM	> 100 µM	> 100	> 100 µM	69.1 µM	> 100 µM	–	–	–	–	–	–	–	–
COc1cc2c(=O)cnoc2cc1O	> 100 µM	> 100 µM	> 100 µM	> 100 µM	> 100 µM	> 100 µM	> 100	> 100 µM	> 100 µM	> 100 µM	–	–	–	–	–	–	–	–
C/C=C/C1OC(O)(C(C)C(O)[C@H](C)C2OC(=O)/C(OC)=C/C(C)=C/[C@@H](C)[C@@H](O)[C@@H](C)C(O)C(C)C/C(C)=C/C=C/C2OC)C[C@@H](OC2CC(O)C(OC(N)=O)C(C)O2)C1C (stereo partly drawn)	< 0.01 µM	> 43.4 µM	16.2 µM	1.01 µM	< 0.01 µM	2.12 µM	1.36	15 µM	18.9 µM	1.27 µM	–	–	–	–	–	–	–	–
C=C1C(=O)O[C@@H]2C[C@]3(C)CC[C@]4(C)[C@H](CC[C@@H]5[C@@]6(C)CCC(=O)C(C)(C)[C@@H]6CC[C@]54C)[C@H]3[C@H]12	32.8 µM	44.1 µM	34.7 µM	55.4 µM	26.2 µM	43.9 µM	35	36.4 µM	40.1 µM	21.6 µM	–	–	–	–	–	–	–	–
CC/C=C(\C(=C/CC)[N+](=O)[O-])[N+](=O)[O-]	32.1 µM	> 100 µM	45.7 µM	32 µM	45.1 µM	> 100 µM	35.5	35.2 µM	45.7 µM	37 µM	–	–	–	–	–	–	–	–
CCCCCCCCCCC1OC([C@@H](O)CC[C@H](O)C2CC[C@@H](CCCCCCCC(O)CC3=CC(C)OC3=O)O2)CCC1O (stereo partly drawn)	> 18.4 µM	> 25 µM	> 25 µM	> 25 µM	> 25 µM	> 25 µM	> 25	> 25 µM	> 25 µM	> 19.8 µM	2.51 µM	–	4.37 µM	3.03 µM	5.08 µM	–	5.47 µM	20.7
Cc1c2c(OCCN3CCCCC3)nn(C)c(=O)c2c(C)n1-c1ccccc1	42.6 µM	> 100 µM	> 100 µM	> 100 µM	> 100 µM	> 100 µM	> 100	> 100 µM	> 100 µM	35.5 µM	–	–	–	–	–	–	–	–
N#Cc1c(-c2ccccc2)[nH]c(=O)n(C2OC(CO)C(O)C(O)C2O)c1=O (stereo not drawn)	> 100 µM	> 100 µM	> 100 µM	> 100 µM	> 100 µM	> 100 µM	> 100	> 100 µM	> 100 µM	> 100 µM	–	–	–	–	–	–	–	–
CC(=O)OCC1OC(Oc2cc(C)c(O)cc2C/C=C(\C)CC/C=C(\C)CC(=O)CC(C)C)C(O)C(OC(C)=O)C1OC(C)=O (stereo not drawn)	31.7 µM	> 50 µM	> 50 µM	24.6 µM	> 50 µM	> 50 µM	40	40.3 µM	> 50 µM	17.3 µM	–	–	–	–	–	–	–	–
